Measured values from ChEMBL document CHEMBL1201862, “PubChem BioAssay data set” (2004).
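48-hour exposure; five concentrations; linearly interpolated endpoints. Here, GI50 denotes the concentration required for 50% inhibition of growth.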 The source made the active and inactive calls. No stated cut-off is given here; in the data, active = GI50 up to about 1.1 µM and inactive = higher.

Key:
Assay in all cases: NCI anticancer screen, dose series, 48 h
[1] = test system: NCI-H23
[2] = test system: Hs-578T
[3] = test system: T47D
[4] = test system: EKVX
[5] = test system: OVCAR-4
[6] = test system: 786-0
[7] = test system: SK-MEL-28
[8] = test system: SK-MEL-5
[9] = test system: TK-10
[10] = test system: CAKI-1
[11] = test system: UACC-62
[12] = test system: SF-539
[13] = test system: OVCAR-8
[14] = test system: HOP-92
[15] = test system: BT-549
[16] = test system: COLO 205
[17] = test system: OVCAR-5
[18] = test system: NCI/ADR-RES
[19] = test system: ACHN
[20] = test system: NCI-H226

COc1cc(C2c3cc4c(cc3OC(C)(N3CCCC3)C2C)OCO4)cc(OC)c1OC (stereo not given)
GI50 [1]: 0.883 µM (active)
GI50 [2]: 0.273 µM (active)
GI50 [3]: 74.5 µM (inactive)
GI50 [4]: 0.43 µM (active)
GI50 [5]: 9.48 µM (inactive)
GI50 [6]: 0.428 µM (active)
GI50 [7]: 0.798 µM (active)
GI50 [8]: 0.247 µM (active)
GI50 [9]: 0.524 µM (active)
GI50 [10]: 1.09 µM (active)
GI50 [11]: 0.373 µM (active)
GI50 [12]: 0.229 µM (active)
GI50 [13]: 0.472 µM (active)
GI50 [14]: 2.19 µM (inactive)
GI50 [15]: 0.232 µM (active)
GI50 [16]: 0.22 µM (active)
GI50 [17]: 0.49 µM (active)
GI50 [18]: 0.192 µM (active)
GI50 [19]: 0.815 µM (active)
GI50 [20]: 0.313 µM (active)

CC/C(N)=N\NC(=O)OC(C)(C)C
GI50 [1]: > 100 µM (inactive)
GI50 [2]: > 100 µM (inactive)
GI50 [3]: > 100 µM (inactive)
GI50 [4]: > 100 µM (inactive)
GI50 [5]: > 100 µM (inactive)
GI50 [6]: > 100 µM (inactive)
GI50 [7]: > 100 µM (inactive)
GI50 [8]: > 100 µM (inactive)
GI50 [9]: > 100 µM (inactive)
GI50 [10]: > 100 µM (inactive)
GI50 [11]: > 100 µM (inactive)
GI50 [12]: > 100 µM (inactive)
GI50 [13]: > 100 µM (inactive)
GI50 [14]: > 100 µM (inactive)
GI50 [15]: > 100 µM (inactive)
GI50 [16]: > 100 µM (inactive)
GI50 [17]: > 100 µM (inactive)
GI50 [18]: > 100 µM (inactive)
GI50 [19]: > 100 µM (inactive)
GI50 [20]: > 100 µM (inactive)

O=c1oc2ccccc2c(O)c1C(C/C(CCN1CCCC1)=N/O)c1ccccc1 (stereo not given)
GI50 [1]: > 100 µM (inactive)
GI50 [2]: > 100 µM (inactive)
GI50 [3]: 7.87 µM (inactive)
GI50 [4]: > 100 µM (inactive)
GI50 [5]: > 100 µM (inactive)
GI50 [6]: > 100 µM (inactive)
GI50 [7]: > 100 µM (inactive)
GI50 [8]: > 100 µM (inactive)
GI50 [9]: > 100 µM (inactive)
GI50 [10]: > 100 µM (inactive)
GI50 [11]: > 100 µM (inactive)
GI50 [12]: > 100 µM (inactive)
GI50 [13]: > 100 µM (inactive)
GI50 [14]: 56.4 µM (inactive)
GI50 [15]: 31.7 µM (inactive)
GI50 [16]: > 100 µM (inactive)
GI50 [17]: > 100 µM (inactive)
GI50 [18]: > 100 µM (inactive)
GI50 [19]: > 100 µM (inactive)
GI50 [20]: > 100 µM (inactive)

Oc1cccc(/C=N/N=c2/[nH][nH]/c(=N/N=C/c3cccc(O)c3)c3ccccc23)c1
GI50 [1]: 16.2 µM (inactive)
GI50 [2]: 18.7 µM (inactive)
GI50 [3]: 15.7 µM (inactive)
GI50 [4]: 18.3 µM (inactive)
GI50 [5]: 17.4 µM (inactive)
GI50 [6]: 13.7 µM (inactive)
GI50 [7]: 21.8 µM (inactive)
GI50 [8]: 0.933 µM (active)
GI50 [9]: 22.1 µM (inactive)
GI50 [10]: 29.1 µM (inactive)
GI50 [11]: 13.5 µM (inactive)
GI50 [12]: 16.9 µM (inactive)
GI50 [13]: 2.72 µM (inactive)
GI50 [14]: 15.9 µM (inactive)
GI50 [15]: 18.5 µM (inactive)
GI50 [16]: 30.4 µM (inactive)
GI50 [17]: 40.1 µM (inactive)
GI50 [18]: 22.2 µM (inactive)
GI50 [19]: 14.3 µM (inactive)
GI50 [20]: 14.5 µM (inactive)

Cc1cc(=O)oc2cc3oc(N(C)c4ccccc4)nc(=O)c3cc12
GI50 [1]: > 100 µM (inactive)
GI50 [2]: 46.7 µM (inactive)
GI50 [3]: > 100 µM (inactive)
GI50 [4]: > 100 µM (inactive)
GI50 [5]: > 100 µM (inactive)
GI50 [6]: > 100 µM (inactive)
GI50 [7]: > 100 µM (inactive)
GI50 [8]: > 100 µM (inactive)
GI50 [9]: > 100 µM (inactive)
GI50 [10]: > 100 µM (inactive)
GI50 [11]: > 100 µM (inactive)
GI50 [12]: > 100 µM (inactive)
GI50 [13]: 42.4 µM (inactive)
GI50 [14]: 22.7 µM (inactive)
GI50 [15]: 50.2 µM (inactive)
GI50 [16]: > 100 µM (inactive)
GI50 [17]: > 100 µM (inactive)
GI50 [18]: > 100 µM (inactive)
GI50 [19]: > 100 µM (inactive)
GI50 [20]: > 100 µM (inactive)

Cc1cn(C2CC(O)C(Cn3nncc3Cn3nc(Br)c(=O)[nH]c3=O)O2)c(=O)[nH]c1=O (stereo not given)
GI50 [1]: > 100 µM (inactive)
GI50 [2]: > 100 µM (inactive)
GI50 [3]: > 100 µM (inactive)
GI50 [4]: > 100 µM (inactive)
GI50 [5]: > 100 µM (inactive)
GI50 [6]: > 100 µM (inactive)
GI50 [7]: > 100 µM (inactive)
GI50 [8]: > 100 µM (inactive)
GI50 [9]: > 100 µM (inactive)
GI50 [10]: > 100 µM (inactive)
GI50 [11]: > 100 µM (inactive)
GI50 [12]: > 100 µM (inactive)
GI50 [13]: > 100 µM (inactive)
GI50 [14]: > 100 µM (inactive)
GI50 [15]: > 100 µM (inactive)
GI50 [16]: > 100 µM (inactive)
GI50 [17]: > 100 µM (inactive)
GI50 [18]: > 100 µM (inactive)
GI50 [19]: > 100 µM (inactive)
GI50 [20]: > 100 µM (inactive)

CCN(CC)CCNc1ccc2ncn3c4ccc(OC)cc4c(=O)c1c23
GI50 [1]: 4.79 µM (inactive)
GI50 [2]: 11.1 µM (inactive)
GI50 [3]: 20 µM (inactive)
GI50 [4]: 14.9 µM (inactive)
GI50 [5]: 1.74 µM (inactive)
GI50 [6]: 2.22 µM (inactive)
GI50 [7]: 14.3 µM (inactive)
GI50 [8]: 6.07 µM (inactive)
GI50 [9]: 10.4 µM (inactive)
GI50 [10]: 5.65 µM (inactive)
GI50 [11]: 16 µM (inactive)
GI50 [12]: 4.24 µM (inactive)
GI50 [13]: 0.836 µM (active)
GI50 [14]: 4.75 µM (inactive)
GI50 [15]: 16.3 µM (inactive)
GI50 [16]: 1.49 µM (inactive)
GI50 [17]: 8.61 µM (inactive)
GI50 [18]: 0.885 µM (active)
GI50 [19]: 1.05 µM (active)
GI50 [20]: 4.31 µM (inactive)

COc1ccc(-n2c(SC(CN3CCOCC3)CN3CCCC3=O)nc3ccccc3c2=O)cc1 (stereo not given)
GI50 [1]: 96.4 µM (inactive)
GI50 [2]: > 100 µM (inactive)
GI50 [3]: > 100 µM (inactive)
GI50 [4]: > 100 µM (inactive)
GI50 [5]: 98.6 µM (inactive)
GI50 [6]: > 100 µM (inactive)
GI50 [7]: 82.6 µM (inactive)
GI50 [8]: > 100 µM (inactive)
GI50 [9]: 95.1 µM (inactive)
GI50 [10]: 43.7 µM (inactive)
GI50 [11]: > 100 µM (inactive)
GI50 [12]: 58.7 µM (inactive)
GI50 [13]: > 100 µM (inactive)
GI50 [14]: > 100 µM (inactive)
GI50 [15]: > 100 µM (inactive)
GI50 [16]: > 100 µM (inactive)
GI50 [17]: > 100 µM (inactive)
GI50 [18]: > 100 µM (inactive)
GI50 [19]: 46 µM (inactive)
GI50 [20]: 40.8 µM (inactive)

C1CCN2CC34CC(CC5CCCN(C6CCCC3N6)C54)C2C1 (stereo not given)
GI50 [1]: > 100 µM (inactive)
GI50 [2]: > 100 µM (inactive)
GI50 [3]: > 100 µM (inactive)
GI50 [4]: > 100 µM (inactive)
GI50 [5]: > 100 µM (inactive)
GI50 [6]: 84.7 µM (inactive)
GI50 [7]: > 100 µM (inactive)
GI50 [8]: > 100 µM (inactive)
GI50 [9]: > 100 µM (inactive)
GI50 [10]: > 100 µM (inactive)
GI50 [11]: > 100 µM (inactive)
GI50 [12]: > 100 µM (inactive)
GI50 [13]: > 100 µM (inactive)
GI50 [14]: > 100 µM (inactive)
GI50 [15]: > 100 µM (inactive)
GI50 [16]: > 100 µM (inactive)
GI50 [17]: > 100 µM (inactive)
GI50 [18]: > 100 µM (inactive)
GI50 [19]: > 100 µM (inactive)
GI50 [20]: > 100 µM (inactive)

COc1ccc(CNc2nc(NCc3ccc(OC)cc3)nc(Nc3ccccc3)n2)cc1
GI50 [1]: 12.4 µM (inactive)
GI50 [2]: 30.1 µM (inactive)
GI50 [3]: > 100 µM (inactive)
GI50 [4]: > 100 µM (inactive)
GI50 [5]: 8.87 µM (inactive)
GI50 [6]: 49.7 µM (inactive)
GI50 [7]: 4.72 µM (inactive)
GI50 [8]: 8.57 µM (inactive)
GI50 [9]: 21.5 µM (inactive)
GI50 [10]: 3.35 µM (inactive)
GI50 [11]: 4.14 µM (inactive)
GI50 [12]: 14.2 µM (inactive)
GI50 [13]: 20.3 µM (inactive)
GI50 [14]: > 100 µM (inactive)
GI50 [15]: > 100 µM (inactive)
GI50 [16]: 4.82 µM (inactive)
GI50 [17]: > 100 µM (inactive)
GI50 [18]: 9.14 µM (inactive)
GI50 [19]: 13.1 µM (inactive)
GI50 [20]: 64.4 µM (inactive)
